Test results reported in ChEMBL document CHEMBL1201862, “PubChem BioAssay data set” (2004).
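Interpolation was linear, between the two tested concentrations surrounding the appropriate level; five concentrations were tested over 48 hours in 96-well plates. GI50 marks 50% less growth.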 The source made the active and inactive calls. No stated cut-off is given here; in the data, active = GI50 up to about 1.1 µM and inactive = higher.

Assays:
Assay in all cases: NCI anticancer screen, dose series, 48 h
786-0 = tested on: 786-0
NCI-H226 = tested on: NCI-H226
CAKI-1 = tested on: CAKI-1
UACC-62 = tested on: UACC-62
SK-MEL-28 = tested on: SK-MEL-28
UACC-257 = tested on: UACC-257
NCI-H460 = tested on: NCI-H460
M14 = tested on: M14
CCRF-CEM = tested on: CCRF-CEM
SF-539 = tested on: SF-539
DU-145 = tested on: DU-145
SNB-78 = tested on: SNB-78
OVCAR-3 = tested on: OVCAR-3
UO-31 = tested on: UO-31
OVCAR-4 = tested on: OVCAR-4
LOX IMVI = tested on: LOX IMVI
SK-MEL-5 = tested on: SK-MEL-5
SW-620 = tested on: SW-620
HCT-15 = tested on: HCT-15
HOP-18 = tested on: HOP-18
NCI-H23 = tested on: NCI-H23
A498 = tested on: A498
HOP-92 = tested on: HOP-92
M19-MEL = tested on: M19-MEL
COLO 205 = tested on: COLO 205
OVCAR-5 = tested on: OVCAR-5
HCC 2998 = tested on: HCC 2998
TK-10 = tested on: TK-10
HCT-116 = tested on: HCT-116
SR = tested on: SR
U-251 = tested on: U-251
SK-MEL-2 = tested on: SK-MEL-2
Malme-3M = tested on: Malme-3M
IGROV-1 = tested on: IGROV-1
SF-268 = tested on: SF-268
DLD-1 = tested on: DLD-1
SNB-19 = tested on: SNB-19
SF-295 = tested on: SF-295
LXFL 529 = tested on: LXFL 529
A549 = tested on: A549
SN12C = tested on: SN12C
NCI-H522 = tested on: NCI-H522
XF498 = tested on: XF498
SNB-75 = tested on: SNB-75
RPMI-8226 = tested on: RPMI-8226
KM-20L2 = tested on: KM-20L2
OVCAR-8 = tested on: OVCAR-8
SK-OV-3 = tested on: SK-OV-3
HT-29 = tested on: HT-29
RXF 393 = tested on: RXF 393
KM12 = tested on: KM12
MOLT-4 = tested on: MOLT-4
K562 = tested on: K562
ACHN = tested on: ACHN
HL-60 = tested on: HL-60
DMS-114 = tested on: DMS-114
Hs-578T = tested on: Hs-578T
BT-549 = tested on: BT-549
MDA-MB-435 = tested on: MDA-MB-435
HOP-62 = tested on: HOP-62
MCF7 = tested on: MCF7
DMS-273 = tested on: DMS-273
PC-3 = tested on: PC-3
EKVX = tested on: EKVX
T47D = tested on: T47D
MDA-N = tested on: MDA-N
MDA-MB-231 = tested on: MDA-MB-231

Question: What does the source list for `C=CCOCCCCC(C(C)=O)C(=O)OC` (stereo unspecified)?
Answer: GI50 (786-0): > 100 µM (inactive); GI50 (NCI-H226): > 100 µM (inactive); GI50 (CAKI-1): > 100 µM (inactive); GI50 (UACC-62): > 100 µM (inactive); GI50 (SK-MEL-28): > 100 µM (inactive); GI50 (UACC-257): > 100 µM (inactive); GI50 (NCI-H460): > 100 µM (inactive); GI50 (M14): > 100 µM (inactive); GI50 (CCRF-CEM): > 100 µM (inactive); GI50 (SF-539): > 100 µM (inactive); GI50 (DU-145): > 100 µM (inactive); GI50 (SNB-78): > 100 µM (inactive); GI50 (OVCAR-3): > 100 µM (inactive); GI50 (UO-31): > 100 µM (inactive); GI50 (OVCAR-4): > 100 µM (inactive); GI50 (LOX IMVI): > 100 µM (inactive); GI50 (SK-MEL-5): > 100 µM (inactive); GI50 (SW-620): > 100 µM (inactive); GI50 (HCT-15): > 100 µM; GI50 (HOP-18): > 100 µM (inactive); GI50 (NCI-H23): > 100 µM (inactive); GI50 (A498): > 100 µM (inactive); GI50 (HOP-92): 54.8 µM (inactive); GI50 (M19-MEL): > 100 µM (inactive); GI50 (COLO 205): > 100 µM (inactive); GI50 (OVCAR-5): > 100 µM (inactive); GI50 (HCC 2998): > 100 µM (inactive); GI50 (TK-10): > 100 µM (inactive); GI50 (HCT-116): > 100 µM (inactive); GI50 (SR): > 100 µM (inactive); GI50 (U-251): > 100 µM (inactive); GI50 (SK-MEL-2): > 100 µM (inactive); GI50 (Malme-3M): > 100 µM (inactive); GI50 (IGROV-1): > 100 µM (inactive); GI50 (SF-268): > 100 µM (inactive); GI50 (DLD-1): > 100 µM (inactive); GI50 (SNB-19): > 100 µM (inactive); GI50 (SF-295): > 100 µM (inactive); GI50 (LXFL 529): > 100 µM (inactive); GI50 (A549): > 100 µM (inactive); GI50 (SN12C): > 100 µM (inactive); GI50 (NCI-H522): > 100 µM (inactive); GI50 (XF498): > 100 µM (inactive); GI50 (SNB-75): > 100 µM (inactive); GI50 (RPMI-8226): > 100 µM (inactive); GI50 (KM-20L2): > 100 µM (inactive); GI50 (OVCAR-8): > 100 µM (inactive); GI50 (SK-OV-3): > 100 µM (inactive); GI50 (HT-29): > 100 µM (inactive); GI50 (RXF 393): > 100 µM (inactive); GI50 (KM12): > 100 µM (inactive); GI50 (MOLT-4): > 100 µM (inactive); GI50 (K562): > 100 µM (inactive); GI50 (ACHN): > 100 µM (inactive); GI50 (HL-60): > 100 µM (inactive)

Question: How did the GI50 (DMS-114) turn out when `N=C1OC(c2cccc(Cl)c2)C(NNS(=O)(=O)c2ccccc2)=C1O` (stereo unspecified) was run?
Answer: 17.9 µM (inactive)

Question: What about the GI50 (Hs-578T) of the same molecule?
Answer: 27.4 µM (inactive)

Question: What about the GI50 (786-0) of the same molecule?
Answer: 24.8 µM (inactive)

Question: What about the GI50 (NCI-H226) of the same molecule?
Answer: 43.9 µM (inactive)

Question: And the GI50 (CAKI-1)?
Answer: 31.4 µM (inactive)

Question: What about the GI50 (UACC-62) of the same molecule?
Answer: 24.9 µM (inactive)

Question: And the GI50 (SK-MEL-28)?
Answer: 20.9 µM (inactive)

Question: What about the GI50 (UACC-257) of the same molecule?
Answer: 33.3 µM (inactive)

Question: What about the GI50 (NCI-H460) of the same molecule?
Answer: 44.1 µM (inactive)

Question: And the GI50 (M14)?
Answer: 22.4 µM (inactive)

Question: And the GI50 (CCRF-CEM)?
Answer: 2.32 µM (inactive)

Question: What about the GI50 (SF-539) of the same molecule?
Answer: 33.4 µM (inactive)

Question: What about the GI50 (DU-145) of the same molecule?
Answer: > 100 µM (inactive)

Question: And the GI50 (SNB-78)?
Answer: 27.4 µM (inactive)

Question: What about the GI50 (OVCAR-3) of the same molecule?
Answer: 23.1 µM (inactive)

Question: And the GI50 (UO-31)?
Answer: 26.6 µM (inactive)

Question: And the GI50 (OVCAR-4)?
Answer: 52.5 µM (inactive)

Question: And the GI50 (LOX IMVI)?
Answer: 20.7 µM (inactive)

Question: What about the GI50 (BT-549) of the same molecule?
Answer: 37 µM (inactive)

Question: What about the GI50 (SK-MEL-5) of the same molecule?
Answer: 41.7 µM (inactive)

Question: And the GI50 (SW-620)?
Answer: 12.8 µM (inactive)

Question: And the GI50 (HCT-15)?
Answer: 12.2 µM

Question: And the GI50 (HOP-18)?
Answer: > 100 µM (inactive)

Question: What about the GI50 (MDA-MB-435) of the same molecule?
Answer: 33 µM (inactive)

Question: And the GI50 (NCI-H23)?
Answer: 25.8 µM (inactive)

Question: And the GI50 (HOP-62)?
Answer: > 100 µM (inactive)

Question: And the GI50 (A498)?
Answer: > 100 µM (inactive)

Question: And the GI50 (HOP-92)?
Answer: 23.6 µM (inactive)

Question: And the GI50 (M19-MEL)?
Answer: 24 µM (inactive)

Question: What about the GI50 (COLO 205) of the same molecule?
Answer: 13.2 µM (inactive)

Question: And the GI50 (OVCAR-5)?
Answer: 31.9 µM (inactive)

Question: And the GI50 (HCC 2998)?
Answer: 36.4 µM (inactive)

Question: What about the GI50 (TK-10) of the same molecule?
Answer: 37.7 µM (inactive)

Question: And the GI50 (HCT-116)?
Answer: 21.3 µM (inactive)

Question: What about the GI50 (SR) of the same molecule?
Answer: 2.37 µM (inactive)

Question: What about the GI50 (U-251) of the same molecule?
Answer: 33.3 µM (inactive)

Question: And the GI50 (SK-MEL-2)?
Answer: 24.9 µM (inactive)

Question: What about the GI50 (MCF7) of the same molecule?
Answer: 22.4 µM (inactive)

Question: And the GI50 (Malme-3M)?
Answer: 22.4 µM (inactive)

Question: And the GI50 (IGROV-1)?
Answer: 70.5 µM (inactive)

Question: What about the GI50 (SF-268) of the same molecule?
Answer: 39.7 µM (inactive)

Question: What about the GI50 (DLD-1) of the same molecule?
Answer: 15 µM (inactive)

Question: And the GI50 (SNB-19)?
Answer: 55.5 µM (inactive)

Question: What about the GI50 (SF-295) of the same molecule?
Answer: 57 µM (inactive)

Question: What about the GI50 (LXFL 529) of the same molecule?
Answer: 16.8 µM (inactive)

Question: And the GI50 (DMS-273)?
Answer: 32.4 µM (inactive)

Question: What about the GI50 (A549) of the same molecule?
Answer: 80.9 µM (inactive)

Question: And the GI50 (SN12C)?
Answer: 44.7 µM (inactive)

Question: What about the GI50 (NCI-H522) of the same molecule?
Answer: 10.6 µM (inactive)

Question: What about the GI50 (PC-3) of the same molecule?
Answer: 21.2 µM (inactive)

Question: And the GI50 (SNB-75)?
Answer: 26.9 µM (inactive)

Question: And the GI50 (RPMI-8226)?
Answer: 10.9 µM (inactive)

Question: And the GI50 (KM-20L2)?
Answer: 39.4 µM (inactive)

Question: And the GI50 (OVCAR-8)?
Answer: 30.5 µM (inactive)

Question: And the GI50 (EKVX)?
Answer: 68.4 µM (inactive)

Question: And the GI50 (SK-OV-3)?
Answer: > 100 µM (inactive)

Question: And the GI50 (HT-29)?
Answer: 19.9 µM (inactive)

Question: And the GI50 (T47D)?
Answer: 10 µM (inactive)

Question: What about the GI50 (RXF 393) of the same molecule?
Answer: 15.7 µM (inactive)

Question: What about the GI50 (KM12) of the same molecule?
Answer: 47.8 µM (inactive)

Question: What about the GI50 (MOLT-4) of the same molecule?
Answer: 4.11 µM (inactive)

Question: And the GI50 (K562)?
Answer: 3.69 µM (inactive)

Question: What about the GI50 (MDA-N) of the same molecule?
Answer: 14.5 µM (inactive)

Question: And the GI50 (ACHN)?
Answer: 31.6 µM (inactive)

Question: What about the GI50 (MDA-MB-231) of the same molecule?
Answer: 18.2 µM (inactive)

Question: What about the GI50 (HL-60) of the same molecule?
Answer: 2.87 µM (inactive)
